Measurements: patent US6603046B1, “Bis-aromatic a,β-unsaturated ketones” (Lica Pharmaceuticals A/S, priority 1992, dated 2003)
Where two headings read alike, the source gives them in different places. Marks after values point to notes of the source that are not given here.

Assays:
P. yoelii strain YM = P. yoelii strain YM infection in mice, parasitemia and mortality (Example 16); type: in vivo, BALB/c mice; settings: Table 16.12
Eimeria tenella = assay: Anticoccidial activity in chickens infected with Eimeria tenella (Example 28); type: in vivo; settings: for feed consumption after 7 days of treatment / feed consumption after 14 days of treatment: amount of feed consumed per kg chicken weight gain, doses as Table 28.1; for Weight gain in 7 days after initiation of treatment / Weight gain in 14 days after initiation of treatment: in feed: salinomycin 70 ppm, 2,5 m4′ac and 2,4 mc 30 mg/kg/day, licochalcone A 10 mg/kg/day; for Mortality: number of chickens, groups of 35, licochalcone A 20
[1] = system: chloroquine resistant P. falciparum DD2 strain; assay: In vitro growth of P. falciparum DD2, 3H-hypoxanthine uptake (Example 15); type: cell-based, Plasmodium falciparum; settings: title: percentage inhibition of 3H-hypoxanthine uptake
human lymphocytes = assay: Lymphocyte Proliferation Assay, 3H-thymidine incorporation (Example 13); settings: Homo sapiens, Lymphocyte, read-out: inhibition of lymphocytes (lower figure)
L. major promastigotes = L. major promastigotes from 4-days cultures, 3H-thymidine uptake (Examples 5, 14); type: cell-based, Leishmania major; settings: Leishmania major, Table 14.1, read-out: percentage inhibition of promastigotes (upper figure); for inhibition at 0.5 µg/mL: 0.5 μg/ml; for inhibition at 1 µg/mL: 1 μg/ml; for inhibition at 5 µg/mL: 5 μg/ml; for inhibition at 10 µg/mL: 10 μg/ml
In short: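 Promastigotes harvested on day 4 of culture were exposed to compound, then pulsed with 100 μC 3H-thymidine for a further 18 h. Cells were collected on filter paper, washed, and incorporated radioactivity counted by scintillation.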

P. falciparum = P. falciparum growth in vitro (Table 14.1, strain not stated); type: cell-based; settings: Plasmodium falciparum; for inhibition at 1 µg/mL: 1 μg/ml; for inhibition at 5 µg/mL: 5 μg/ml; for inhibition at 10 µg/mL: 10 μg/ml
Description: The P. falciparum experimental setup was as described in Example 15.
Testing of the effect of drugs and serum on the in vitro growth of the parasites. The experiments in which compounds were tested for their ability to inhibit parasite growth were performed by a modification of the method originally described by Jensen et al. (1982). Fifty μl of parasitized erythrocytes (parasitemia approximately 1%) in a concentration of 5×10^8/ml and 50 μl of RPMI medium containing different concentrations of the test compound was added to each well of a 96 well flat-bottomed microtiter plate (Nunc). The cultures were then incubated for 48 hours, 24 hours before termination of the culture adding 20 μl of 3-H-hypoxanthine (40 uCi/ml) (New England Nuclear, Boston, Mass., USA) was added to each well. The cultures were then harvested onto glass fiber filters using a Skatron cell harvester (Skatron, Lierbyen, Norway), and the incorporation of 3-H-hypoxanthine into the DNA of dividing parasites was determined by liquid scintillation spectrometry.

[2] = D + 5, i.p. 40 mg/kg twice daily
[3] = D + 6, i.p. 10 mg/kg twice daily
[4] = D + 6, i.p. 20 mg/kg twice daily
[5] = D + 6, i.p. 30 mg/kg twice daily
[6] = D + 6, i.p. 40 mg/kg twice daily
[7] = D + 8, i.p. 20 mg/kg twice daily
[8] = D + 8, i.p. 30 mg/kg twice daily
[9] = D + 10, i.p. 30 mg/kg twice daily
[10] = 0.5 μg/ml, read-out: inhibition of malaria parasites (middle figure) (converted)
[11] = read-out: inhibition of malaria parasites (middle figure) (converted)

Structure (SMILES)	mortality (no. of dead mice/total no. of tested mice) (P. yoelii strain YM; [3])	% parasitemia (P. yoelii strain YM; [4]) [%]	mortality (no. of dead mice/total no. of tested mice) (P. yoelii strain YM; [4])	% parasitemia (P. yoelii strain YM; [5]) [%]	mortality (no. of dead mice/total no. of tested mice) (P. yoelii strain YM; [5])	feed consumption after 7 days of treatment (Eimeria tenella)	feed consumption after 14 days of treatment (Eimeria tenella)	Weight gain in 7 days after initiation of treatment (Eimeria tenella) [grams per chicken]	Weight gain in 14 days after initiation of treatment (Eimeria tenella)	Mortality (Eimeria tenella)	inhibition at 1 µg/mL (human lymphocytes) [%]	inhibition at 5 µg/mL (human lymphocytes) [%]	inhibition at 10 µg/mL (human lymphocytes) [%]	inhibition at 0.5 µg/mL (L. major promastigotes) [%]	inhibition at 1 µg/mL (L. major promastigotes) [%]	inhibition at 5 µg/mL (L. major promastigotes) [%]	inhibition at 10 µg/mL (L. major promastigotes) [%]	inhibition at 1 µg/mL (P. falciparum; [11]) [%]	inhibition at 5 µg/mL (P. falciparum; [11]) [%]	inhibition at 10 µg/mL (P. falciparum; [11]) [%]	also measured
COc1ccc(/C=C/C(=O)c2ccccc2)c(OC)c1 [2,4mc, 2,4-dimethoxychalcone]	(5/5)	85	4/5	29	3/5	1.30	1.48	380	803^ grams per chicken	1											% parasitemia (P. yoelii strain YM; [2]): 78%; mortality (no. of dead mice/total no. of tested mice) (P. yoelii strain YM; [2]): 4/5; mortality (no. of dead mice/total no. of tested mice) (P. yoelii strain YM; [6]): (5/5); mortality (no. of dead mice/total no. of tested mice) (P. yoelii strain YM; [7]): (5/5); % parasitemia (P. yoelii strain YM; [8]): 15%; mortality (no. of dead mice/total no. of tested mice) (P. yoelii strain YM; [8]): 4/5; % parasitemia (P. yoelii strain YM; [9]): 65%; mortality (no. of dead mice/total no. of tested mice) (P. yoelii strain YM; [9]): 4/5; mortality (no. of dead mice/total no. of tested mice) (P. yoelii strain YM; D + 12, i.p. 30 mg/kg twice daily): (5/5)
C=CCOc1ccc(C(=O)/C=C/c2cc(OC)ccc2OC)cc1 [2,5-Dimethoxy-4′-allyloxychalcone, 2,5-dimethoxy-4′-prop-2enyloxychalcone]	(5/5)	79	4/5	62	3/5	1.31	1.54	366	804^ grams per chicken	2											mortality (no. of dead mice/total no. of tested mice) (P. yoelii strain YM; [6]): (5/5); mortality (no. of dead mice/total no. of tested mice) (P. yoelii strain YM; [7]): (5/5); % parasitemia (P. yoelii strain YM; [8]): 78%; mortality (no. of dead mice/total no. of tested mice) (P. yoelii strain YM; [8]): 4/5; mortality (no. of dead mice/total no. of tested mice) (P. yoelii strain YM; [9]): (5/5); Growth in % of control (mean ± SEM) ([1]; 0.5 μg/ml): 15.8 ± 13.2%; Growth in % of control (mean ± SEM) ([1]; 1 μg/ml): 12.1 ± 13.7%; Growth in % of control (mean ± SEM) ([1]; 5 μg/ml): 45.3 ± 7.2%; Growth in % of control (mean ± SEM) ([1]; 10 μg/ml): 74.4 ± 4.4%
C=CCOc1ccc(C(=O)/C=C/c2c(OC)cccc2OC)cc1 [drawing 83]											1.3	0	0	11.3 ± 9.8	16.3 ± 12.4	63.7 ± 24.2	91.1 ± 4.1	27.4	39.7	65.7	inhibition at 0.5 µg/mL (human lymphocytes): 1%; inhibition at 0.5 µg/mL (P. falciparum; [10]): 0%
C=CCOc1ccc(C(=O)/C=C/c2ccc(OC)c(OC)c2)cc1 [drawing 84]											0	0	15.6	15.2 ± 11.3	30.4 ± 23.2	70.4 ± 15.2	90.8 ± 9.7	11.4	22.8	68	inhibition at 0.5 µg/mL (P. falciparum; read-out: inhibition of malaria parasites (middle figure)): 2.9%
C=CCOc1ccc(C(=O)/C=C/c2cc(OC)cc(OC)c2)cc1 [drawing 85]											0	4.6	25.4	10.6 ± 10.7	27.6 ± 23.3	82.8 ± 10	98.3 ± 0.9	15.3	74.3	98.6	inhibition at 0.5 µg/mL (human lymphocytes): 0%; inhibition at 0.5 µg/mL (P. falciparum; [10]): 13.8%
CC[C@@H](C(=O)[C@@H](C)[C@@H](O)[C@H](C)[C@@H]1O[C@@H]([C@@H](CC)C(=O)O)CC[C@@H]1C)[C@H]1O[C@]2(C=C[C@@H](O)[C@]3(CC[C@@](C)([C@H]4CC[C@](O)(CC)[C@H](C)O4)O3)O2)[C@H](C)C[C@@H]1C [salinomycin, reference compound]						1.30	1.44	425	900^a grams per chicken	0											Difference in weight gain to group 5 (control infected) after treatment for 14 days (Eimeria tenella; normal variation ±2%): ^aDifference between groups 1 (standard feed) and 5 (control infected) after treatment for 14 days is 12%.
